This note sets out measurements from the supplement of paper PMC4862054.

Test [1] relates to HCC1937. The conditions noted are these: 72 h. In a few lines: (§1)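 EC50 is the value from a fitted percent-inhibition dose-response curve, censored at the highest concentration, and rows with zero drug sensitivity score were not kept. The underlying assay seeded breast cancer cell lines in 20 µl onto 384-well plates pre-loaded with compound in 5 µl medium for 72 h. Viability was then read by CellTiter-Blue fluorescence at 560/590 nm after 2 h at 37 °C, with each plate normalised to vehicle and a positive kill control.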

Test [2] concerns CAL-120. The conditions noted are these: 72 h. In a few lines:
(§2)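 For viability and cell death testing, 384-well plates carried compound at 5 concentrations in 10-fold steps over a compound-specific 10,000-fold range, and breast cancer cell lines were seeded in 20 µl suspension. After 72 h incubation, cell death was read by CellTox Green fluorescence (485/520 nm) before viability was read by CellTiter-Glo luminescence. EC50 was fitted from the dose-response curves and censored at the top concentration. Normalisation on each plate was to 0.1 % DMSO and a positive kill control.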

Test [3] deals with HDQ-P1. Put plainly: normalised response (% of control), CellTiter-Glo; higher = more viable cells (100 = DMSO, 0 = benzethonium chloride kill control). The conditions noted are these: incubation time: 72 h. The method, then:
(§3)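 DSRT, 72 h incubation, CellTox Green / CellTiter-Glo readout. Signal is normalised to DMSO and benzethonium chloride controls. Value is the normalised response at the highest dose.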
(In general: ATP-based viability assays read luminescence as a measure of living cells.)

The subject of test [4] is MDA-MB-468. Described as above. The following applies: incubation time: 72 h. The method, then: as §3
The subject of test [5] is BT-549. The description is as above. The conditions noted are these: incubation time: 72 h. The protocol: as §3
Test [6] deals with Hs578T. The test is described as above. The conditions noted are these: incubation time: 72 h. The method, then: as §3
In test [7] the test system is CAL-120. The description is as above. The conditions noted are these: incubation time: 72 h. The method, then:
as §3

Test [8] deals with DU-4475. Described as above. The conditions noted are these: incubation time: 72 h. The method, then: as §3
In test [9] the test system is MDA-MB-231. The description is as above. The conditions noted are these: incubation time: 72 h. The method, then: as §3
Test [10] has as its system MDA-MB-453. The description is as above. The following applies: incubation time: 72 h. The method, then:
as §3

Test [11] concerns CAL-85-1. Described as above. The following applies: incubation time: 72 h. The protocol:
as §3

Test [12] concerns MFM-223. The test is described as above. The following applies: incubation time: 72 h. The method, then: as §3
The subject of test [13] is MDA-MB-468. The conditions noted are these: 72 h. In a few lines:
as §1

For test [14], the system named is SK-BR-3. The conditions noted are these: 72 h. The method in brief: as §1
Test [15] deals with BT-549. The conditions noted are these: 72 h. The method in brief: as §1
For test [16], the system named is Hs578T. The following applies: 72 h. The method in brief: as §1
Test [17] concerns CAL-120. The following applies: 72 h. In a few lines: as §1
This is another data set of the same source.

Test [18] has as its system MDA-MB-436. The following applies: 72 h. The method in brief: as §1
Test [19] deals with MDA-MB-231. The conditions noted are these: 72 h. The method in brief: as §1
Test [20] deals with HCC1143. The conditions noted are these: 72 h. In a few lines:
as §1

Test [21] deals with HCC1599. The following applies: 72 h. In a few lines:
as §1

The test system of test [22] is BT-474. The following applies: 72 h. In a few lines:
as §2

Test [23] relates to MDA-MB-468. The conditions noted are these: 72 h. In a few lines:
as §2
This is another data set of the same source.

Test [24] concerns SK-BR-3. The following applies: 72 h. The method in brief:
as §2
The source holds these as a separate data set.

Test [25] relates to Hs578T. The following applies: 72 h. The method in brief:
as §2
The source holds these as a separate data set.

The subject of test [26] is MDA-MB-436. The following applies: 72 h. The method in brief:
as §2
The source holds these as a separate data set.

For test [27], the system named is DU-4475. The conditions noted are these: 72 h. The method in brief: as §2
In test [28] the test system is CAL-51. The following applies: 72 h. In a few lines: as §2
Test [29] deals with MDA-MB-231. The conditions noted are these: 72 h. The method in brief:
as §2
The source holds these as a separate data set.

In test [30] the test system is HCC1937. The conditions noted are these: 72 h. In a few lines: as §2
The source holds these as a separate data set.

Test [31] deals with CAL-85-1. The following applies: 72 h. In a few lines: as §2
Test [32] deals with HCC1599. The following applies: 72 h. The method in brief:
as §2
The source holds these as a separate data set.

Test [33] has as its system HDQ-P1. The conditions noted are these: 72 h. The method in brief: as §2
The test system of test [34] is CAL-148. The conditions noted are these: 72 h. The method in brief:
as §2

For test [35], the system named is BT-549. The following applies: 72 h. In a few lines:
as §2
This is another data set of the same source.

For test [36], the system named is MCF-10A. The following applies: 72 h. The method in brief:
as §2

The subject of test [37] is MFM-223. The conditions noted are these: 72 h. The method in brief: as §2
For test [38], the system named is HCC1143. The conditions noted are these: 72 h. In a few lines:
as §2
This is another data set of the same source.

Turning to `CN1CCN(c2ccc3nc(-c4c(N)c5c(F)cccc5[nH]c4=O)[nH]c3c2)CC1` [Dovitinib], the “EC50, CellTiter-Blue viability” value in [1] amounted to 0.371 µM. For the same molecule, the “EC50, CellTiter-Glo” value in test [2] was above 10 µM.
In the case of `COC1=C2C[C@@H](C)C[C@H](OC)[C@H](O)[C@@H](C)/C=C(\C)[C@H](OC(N)=O)[C@@H](OC)/C=C\C=C(/C)C(=O)NC(=CC1=O)C2=O` [Geldanamycin] (10000 nM), the normalised response in [3] was determined as 19%; in test [4], 7.56%; in test [5], 19.2%; in test [6] it was 16.8%; in test [7] it was 26.7%; in test [8] it was 0.14%. The normalised response is 3.82% in [9], 29.5% in test [10], 10.5% in test [11] and 20.3% in test [12].
In the case of `COc1ccc(C2=N[C@@H](c3ccc(Cl)cc3)[C@@H](c3ccc(Cl)cc3)N2C(=O)N2CCNC(=O)C2)c(OC(C)C)c1` [Nutlin-3] (10000 nM), the normalised response stood at 97.1% in [3]; 78.9% in test [4]; 87% in [5]; 102% in [6]; 100% in [7]; 72.7% in test [8]. Besides, the normalised response in test [9] turned out to be 91.9%; in [10] it was 68.7%; in test [11] it was 97.3%; in test [12] it was 93.3%.
Consider `O=c1[nH]c(=O)n([C@H]2C[C@H](O)[C@@H](CO)O2)cc1F` [Floxuridine], for which the “EC50, CellTiter-Blue viability” value in test [13] was determined as 0.0489 µM; in test [14], 0.0603 µM; in test [15], 0.804 µM; in test [16], 0.501 µM; in [17], 0.118 µM; in test [18], 0.182 µM. The “EC50, CellTiter-Blue viability” value is 0.494 µM in [19], 4.07 µM in test [1], 1.63 µM in test [20] and above 10 µM in test [21]. The “EC50, CellTiter-Glo” value in test [22] turned out to be 0.555 µM; in [23] it was 0.24 µM; in test [24], 0.0966 µM; in test [25], 0.034 µM; in [2], 0.42 µM; in test [26], 0.0577 µM. The “EC50, CellTiter-Glo” value in test [27] came to 1.58 µM; in test [28], 0.0803 µM; in test [29] it was 0.687 µM; in test [30], 0.211 µM; in [31], 0.0795 µM; in test [32], 0.027 µM.
As to `CN(c1ccccc1CNc1nc(Nc2ccc3c(c2)CC(=O)N3)ncc1C(F)(F)F)S(C)(=O)=O`, the “EC50, CellTiter-Glo” value in test [22] was determined as 2.43 µM; in test [33], 1.82 µM; in [34], 1.88 µM; in test [23] it was 1.75 µM; in [24], 3.19 µM; in test [35] it was 3.13 µM. The “EC50, CellTiter-Glo” value in test [25] was determined as 4.36 µM; in [2], 8.76 µM; in test [26], 5.62 µM; in test [27] it was 2.13 µM; in test [28], 1.11 µM; in [29], 1.99 µM. The “EC50, CellTiter-Glo” value in test [36] was 1.49 µM; in test [30] it was 6.52 µM; in test [31], 2.45 µM; in test [37] it was 9.4 µM; in test [38], 3.64 µM; in test [32], 4.38 µM.
